Data: US9994547B2, “Heteroarylamide inhibitors of TBK1” (Takeda Pharmaceutical Company Limited, priority 2014, dated 2018)

Target: Full length human TBK1 (Homo sapiens (Human), UniProt Q9UHD2)
Experiment: Inhibition of TBK1 Enzyme (Example A)
Type: biochemical
Settings: -log(IC50), IC50 molar; 3 nM TBK1, 25 μM ATP, 60 min RT
Procedure: Full length human TBK1 with an N-terminal His-tag was cloned into the pFastBacl vector and was transfected into Sf9 cells. 72 hours later the virus was harvested and amplified through two additional rounds of infections. Then 400 mL of the resulting virus stock was used to infect 10 L of Sf9 cells at a density of 2×10^6 cells/mL. Cell pellets were harvested 48 hours post infection and were lysed by freeze-thaw, homogenization and sonication in binding buffer (25 mM Tris pH7.6, 1 M NaCl, 10 mM imidazole, 0.5 mM TCEP) plus 0.1% Triton X-100 and complete protease inhibitor cocktail. The lysate was spun and the supernatant was purified with a HisTrap FF crude and a Superdex 200 pg column.
TBK1 inhibition is determined using a 384 well plate format in buffer containing 20 mM Hepes, pH 7.4, 10 mM MgCl2, 1 mM EDTA, 0.01% Brij-L23, 1 mM DTT. Each test compound is prepared in DMSO using 2.5-fold serial dilutions for 11 data points, which are added to the buffer so that each dilution contains 1% DMSO. To each well is added 2 μL of 1 μM 5FAM-DRHDSGLDSMKDE-NH2 (in buffer), 2 μL of diluted test compound (1% DMSO in buffer), and 5 μL of 3 nM TBK1 and 25 μM ATP (in buffer). The reaction mixture is incubated at RT for 60 min, and quenched by adding 20 mM Hepes, pH 7.4, 10 mM MgCl2, 1 mM EDTA, 0.01% Brij-L23, 1 mM DTT+25 mM EDTA. To quantify the fluorescent-labeled substrate and product following reaction, the test plate is loaded on a Caliper LC-3000, which measures percent of conversion by microfluidic-based separation. Corresponding IC50 values are calculated by non-linear curve fitting of the compound concentrations and percent of inhibition to the standard IC50 equation and reported as pIC50, i.e., −log(IC50), where IC50 is the molar concentration.

Chain of Full length human TBK1 (Q9UHD2 whole entry): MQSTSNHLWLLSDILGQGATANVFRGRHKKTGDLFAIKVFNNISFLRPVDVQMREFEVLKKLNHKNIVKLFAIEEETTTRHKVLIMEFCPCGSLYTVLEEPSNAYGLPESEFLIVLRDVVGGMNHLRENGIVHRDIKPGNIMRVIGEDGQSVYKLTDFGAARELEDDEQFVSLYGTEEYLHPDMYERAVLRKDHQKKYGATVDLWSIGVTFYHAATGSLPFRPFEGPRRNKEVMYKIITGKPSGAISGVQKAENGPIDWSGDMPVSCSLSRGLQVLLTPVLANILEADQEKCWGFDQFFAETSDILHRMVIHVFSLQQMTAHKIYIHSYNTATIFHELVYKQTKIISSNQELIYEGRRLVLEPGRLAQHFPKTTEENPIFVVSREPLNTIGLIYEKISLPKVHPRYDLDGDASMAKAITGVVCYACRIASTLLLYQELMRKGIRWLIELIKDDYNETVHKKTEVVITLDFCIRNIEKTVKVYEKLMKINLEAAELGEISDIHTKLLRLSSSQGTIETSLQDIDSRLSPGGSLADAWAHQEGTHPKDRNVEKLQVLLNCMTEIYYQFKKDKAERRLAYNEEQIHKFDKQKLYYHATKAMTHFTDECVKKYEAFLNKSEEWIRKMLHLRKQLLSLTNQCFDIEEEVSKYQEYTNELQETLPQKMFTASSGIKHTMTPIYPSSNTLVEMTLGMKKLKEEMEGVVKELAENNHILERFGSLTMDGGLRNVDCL

| TBK1 Inhibition (pIC50) | Compound |
| --- | --- |
| 6.3 | CC[C@@H](Nc1cc(-c2cnc(NC(=O)C3CC3)cn2)cnc1C#N)C(=O)N(C)C [Example 31, (R)-N-(5-(6-cyano-5-((1-(dimethylamino)-1-oxobutan-2-yl)amino)pyridin-3-yl)pyrazin-2-yl)cyclopropanecarboxamide] |
| 6.8 | C[C@@H](O)[C@H](Nc1cc(-c2cnc(NC(=O)C3CC3)cn2)cnc1C#N)C(=O)N(C)C [Example 32, N-(5-(6-cyano-5-(((2S,3R)-1-(dimethylamino)-3-hydroxy-1-oxobutan-2-yl)amino)pyridin-3-yl)pyrazin-2-yl)cyclopropanecarboxamide] |
| 5.9 | CN(C)C(=O)[C@@H](CC(F)F)Nc1cc(-c2cnc(NC(=O)C3CC3)cn2)ccc1C#N [Example 33, (R)-N-(5-(4-cyano-3-((1-(dimethylamino)-4,4-difluoro-1-oxobutan-2-yl)amino)phenyl)pyrazin-2-yl)cyclopropanecarboxamide] |
| 8.2 | CN(C)C(=O)[C@H](CC(F)F)Nc1cc(-c2cnc(NC(=O)C3CC3)cn2)ccc1C#N [Example 34, (S)-N-(5-(4-cyano-3-((1-(dimethylamino)-4,4-difluoro-1-oxobutan-2-yl)amino)phenyl)pyrazin-2-yl)cyclopropanecarboxamide] |
| 6.9 | CCC(Nc1cc(-c2cnc(NC(=O)C3CC3)cn2)cnc1C#N)C(=O)N(C)CCO (stereo not shown) [Example 35, N-(5-(6-cyano-5-((1-((2-hydroxyethyl)(methyl)amino)-1-oxobutan-2-yl)amino)pyridin-3-yl)pyrazin-2-yl)cyclopropanecarboxamide] |
| 7.3 | CCC(Nc1cc(-c2cnc(NC(=O)C3CC3)cn2)cnc1C#N)C(=O)N(C)C1CC1 (stereo not shown) [Example 36, N-(5-(6-cyano-5-((1-(cyclopropyl(methyl)amino)-1-oxobutan-2-yl)amino)pyridin-3-yl)pyrazin-2-yl)cyclopropanecarboxamide] |
| 6.9 | C[C@@H](O)[C@@H](Nc1cc(-c2cnc(NC(=O)C3CC3)cn2)cnc1C#N)C(=O)N(C)C [Example 37, N-(5-(6-cyano-5-(((2R,3R)-1-(dimethylamino)-3-hydroxy-1-oxobutan-2-yl)amino)pyridin-3-yl)pyrazin-2-yl)cyclopropanecarboxamide] |
| 5.8 | C[C@H](O)[C@@H](Nc1cc(-c2cnc(NC(=O)C3CC3)cn2)cnc1C#N)C(=O)N(C)C [Example 38, N-(5-(6-cyano-5-(((2R,3S)-1-(dimethylamino)-3-hydroxy-1-oxobutan-2-yl)amino)pyridin-3-yl)pyrazin-2-yl)cyclopropanecarboxamide] |
| 7.0 | C[C@H](O)[C@H](Nc1cc(-c2cnc(NC(=O)C3CC3)cn2)cnc1C#N)C(=O)N(C)C [Example 39, N-(5-(6-cyano-5-(((2S,3S)-1-(dimethylamino)-3-hydroxy-1-oxobutan-2-yl)amino)pyridin-3-yl)pyrazin-2-yl)cyclopropanecarboxamide] |
| 7.5 | CN(CC(F)(F)F)C(=O)CNc1cc(-c2cnc(NC(=O)C3CC3)cn2)cnc1C#N [Example 40, N-(5-(6-cyano-5-((2-(methyl(2,2,2-trifluoroethyl)amino)-2-oxoethyl)amino)pyridin-3-yl)pyrazin-2-yl)cyclopropanecarboxamide] |
| 7.8 | CC(Nc1cc(-c2cnc(NC(=O)C3CC3)cn2)cnc1C#N)C(=O)N(C)CC(F)(F)F (stereo not shown) [Example 41, N-(5-(6-cyano-5-((1-(methyl(2,2,2-trifluoroethyl)amino)-1-oxopropan-2-yl)amino)pyridin-3-yl)pyrazin-2-yl)cyclopropanecarboxamide] |
| 6.8 | COCC(Nc1cc(-c2cnc(NC(=O)C3CC3)cn2)cnc1C#N)C(=O)N(C)C (stereo not shown) [Example 42, N-(5-(6-cyano-5-((1-(dimethylamino)-3-methoxy-1-oxopropan-2-yl)amino)pyridin-3-yl)pyrazin-2-yl)cyclopropanecarboxamide] |
| 7.7 | CC(Nc1cc(-c2cnc(NC(=O)C3CC3)cn2)cnc1C#N)C(=O)N(C)CC#N (stereo not shown) [Example 43, N-(5-(6-cyano-5-((1-((cyanomethyl)(methyl)amino)-1-oxopropan-2-yl)amino)pyridin-3-yl)pyrazin-2-yl)cyclopropanecarboxamide] |
| 6.2 | CN(C)C(=O)C(CC#N)Nc1cc(-c2cnc(NC(=O)C3CC3)cn2)cnc1C#N (stereo not shown) [Example 44, N-(5-(6-cyano-5-((3-cyano-1-(dimethylamino)-1-oxopropan-2-yl)amino)pyridin-3-yl)pyrazin-2-yl)cyclopropanecarboxamide] |
| 7.5 | N#Cc1ncc(-c2cnc(NC(=O)C3CC3)cn2)cc1NCC(=O)N1CCC[C@@H]1C#N [Example 45, (R)-N-(5-(6-cyano-5-((2-(2-cyanopyrrolidin-1-yl)-2-oxoethyl)amino)pyridin-3-yl)pyrazin-2-yl)cyclopropanecarboxamide] |
| 8.0 | CC(Nc1cc(-c2cnc(NC(=O)C3CC3)cn2)cnc1C#N)C(=O)N(C)CC(F)F (stereo not shown) [Example 46, N-(5-(6-cyano-5-((1-((2,2-difluoroethyl)(methyl)amino)-1-oxopropan-2-yl)amino)pyridin-3-yl)pyrazin-2-yl)cyclopropanecarboxamide] |
| 7.7 | CC(Nc1cc(-c2cnc(NC(=O)C3CC3)cn2)cnc1C#N)C(=O)N(C)CCF (stereo not shown) [Example 47, N-(5-(6-cyano-5-((1-((2-fluoroethyl)(methyl)amino)-1-oxopropan-2-yl)amino)pyridin-3-yl)pyrazin-2-yl)cyclopropanecarboxamide] |
| 8.2 | N#Cc1ncc(-c2cnc(NC(=O)C3CC3)cn2)cc1NCC(=O)N1CCC[C@@H]1C(F)(F)F [Example 48, (R)-N-(5-(6-cyano-5-((2-oxo-2-(2-(trifluoromethyl)pyrrolidin-1-yl)ethyl)amino)pyridin-3-yl)pyrazin-2-yl)cyclopropanecarboxamide] |
| 7.2 | CN(CC#N)C(=O)CNc1cc(-c2cnc(NC(=O)C3CC3)cn2)cnc1C#N [Example 49, N-(5-(6-cyano-5-((2-((cyanomethyl)(methyl)amino)-2-oxoethyl)amino)pyridin-3-yl)pyrazin-2-yl)cyclopropanecarboxamide] |
| 7.9 | C[C@H](Nc1cc(-c2cnc(NC(=O)C3CC3)cn2)cnc1C#N)C(=O)N(C)CC#N [Example 50, (S)-N-(5-(6-cyano-5-((1-((cyanomethyl)(methyl)amino)-1-oxopropan-2-yl)amino)pyridin-3-yl)pyrazin-2-yl)cyclopropanecarboxamide] |
| 7.4 | CC[C@H](Nc1cc(-c2cnc(NC(=O)C3CC3)cn2)cnc1C#N)C(=O)N(C)CC#N [Example 51, (S)-N-(5-(6-cyano-5-((1-((cyanomethyl)(methyl)amino)-1-oxobutan-2-yl)amino)pyridin-3-yl)pyrazin-2-yl)cyclopropanecarboxamide] |
| 6.5 | COCC[C@H](Nc1cc(-c2cnc(NC(=O)C3CC3)cn2)cnc1C#N)C(=O)N(C)CCO [Example 52, (S)-N-(5-(6-cyano-5-((1-((2-hydroxyethyl)(methyl)amino)-4-methoxy-1-oxobutan-2-yl)amino)pyridin-3-yl)pyrazin-2-yl)cyclopropanecarboxamide] |
